Reference: paper PMC12005767 (Advanced Science, 2025)

What was measured:
[1] = biological target: T1, HDAC2 (Homo sapiens, UniProt Q92769); experiment: In vitro HDACs inhibition fluorescence assay, HDAC2; assay type: biochemical; conditions: mean ± SEM
T1 construct: purchased BPS Bioscience
Experimental: (§1) In Vitro HDACs Inhibition Fluorescence Assay: For the inhibitory activity against HDAC1‐10, enzymes were also procured from BPS Bioscience. The in vitro […] inhibition assays were conducted following the established method described previously.^[ [45] ^] The working concentrations of HDAC1‐10 were 4 × 10^−9 M. The fluorogenic substrate of HDAC1, 2, 3, and 6 was Boc‐Lys (acetyl)‐AMC, and the substrate of HDAC4, 5, 7, 8, 9, and 10 was Boc‐Lys (trifluoroacetyl) AMC. The developer solution consists of 30 mg mL^−1 trypsin and 5 × 10^−6 M TSA. A standing period of 30 min was sufficient before assessing the fluorescence intensity.

[2] = biological target: T2, HDAC7 (Homo sapiens, UniProt Q8WUI4); experiment: In vitro HDACs inhibition fluorescence assay, HDAC7; assay type: biochemical; conditions: mean ± SEM
T2 construct: purchased BPS Bioscience
Experimental: as §1

[3] = system: AML12 cells; experiment: FFA-induced lipid accumulation in AML12 cells (Oil Red O); assay type: cell-based; conditions: 24 h
[4] = biological target: T3, HDAC11 (Homo sapiens, UniProt Q96DB2); experiment: HDAC11 inhibition fluorescence assay (ETDKmyr substrate); assay type: biochemical
T3 construct: The HDAC11 enzyme was a full‐length human recombinant HDAC enzyme sourced from BPS Bioscience; purchased BPS Bioscience
T3 sequence (Q96DB2 1-347): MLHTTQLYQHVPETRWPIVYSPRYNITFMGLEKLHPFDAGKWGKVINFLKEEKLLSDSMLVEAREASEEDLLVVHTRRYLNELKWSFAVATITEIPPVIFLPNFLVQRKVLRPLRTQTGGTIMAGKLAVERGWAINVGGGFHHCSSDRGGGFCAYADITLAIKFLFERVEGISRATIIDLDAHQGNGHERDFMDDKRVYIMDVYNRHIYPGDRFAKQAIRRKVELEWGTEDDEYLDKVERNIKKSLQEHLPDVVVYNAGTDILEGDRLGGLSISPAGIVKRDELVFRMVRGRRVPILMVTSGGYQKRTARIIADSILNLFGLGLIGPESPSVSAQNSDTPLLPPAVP
Experimental: The HDAC11 enzyme was a full‐length human recombinant HDAC enzyme sourced from BPS Bioscience. In detail, a total of 20 µL of recombinant HDAC11 enzyme solution (working concentration = 1 × 10^−9 M) was combined with varying concentrations of the test compound (20 µL) in a 96‐well black plate. The mixture was then incubated at a temperature of 30 °C for a duration of 1 h. Subsequently, 10 µL of the specific fluorogenic substrate (ETDKacyl‐Kmyr) was added. Following 2 h incubation at 30 °C, the catalytic reaction was ceased by adding 10 µL of a developer solution consisting of 2 mg mL^−1 trypsin and 5 × 10^−6 M trichostatin A (TSA). After a standing period of 6 h, the fluorescence intensity was assessed using a microplate reader at excitation and emission wavelengths of 360 and 460 nm, respectively. The inhibition ratios were calculated based on the fluorescence intensity readings of the test wells compared to the control wells. GraphPad Prism 8.0 software was employed to generate IC 50 curves and determine the corresponding IC 50 values utilizing the “log(inhibitor) versus normalized response‐variable slope” function.

[5] = Hydrophilicity / dissolution in 5% DMSO aqueous solution (HPLC); assay type: physicochemical; conditions: Figure S2
Experimental: Figure S2. (A) Liquid chromatograms of compounds A8 and B6 in methanol and 5% DMSO aqueous solution, respectively. The chromatograms were determined with an Agilent 1260 HPLC, using an Agilent 5 TC-C18 column (5 μm, 250mm× 4.6 mm). The eluent system was made up of solvent A (water) and solvent B (methanol). Elution conditions: phase B was 85% The peaks were detected at 254 nm at a flow rate was 1.0 mL/min. (B) The peak areas of serially diluted compound B6 were determined under the above-mentioned liquid chromatographic conditions, and a linear regression equation was fitted. (C) The dissolution status/solubility condition of compounds A8 and B6 in a 5% DMSO aqueous solution.

[6] = biological target: T4, HDAC3 (Homo sapiens, UniProt O15379); experiment: In vitro HDACs inhibition fluorescence assay, HDAC3; assay type: biochemical; conditions: mean ± SEM
T4 construct: purchased BPS Bioscience
Experimental: as §1

[7] = biological target: SIRT2 (Homo sapiens, UniProt Q8IXJ6); experiment: SIRT2 inhibition fluorescence assay (AcIQF substrate); assay type: biochemical
Experimental: For the inhibitory activity against SIRT2, substrate is the AcIQF.^[ [46] ^] Dilution series compound was incubated with the SIRT2 enzyme ([…]) for 30 min at 25 °C. Then AcIQF (5 × 10^−3 M) and NAD^+ ([…]) were added to start the reaction at 25 °C. 2 h later, […] stop solution (containing ≈2 U mL^−1 trypsin and 4 × 10^−3 M nicotinamide) was added to stop the reactions. Then the mixture was incubated for 30 min, and the fluorescence intensity was assessed.

[8] = biological target: T5, HDAC4 (Homo sapiens, UniProt P56524); experiment: In vitro HDACs inhibition fluorescence assay, HDAC4; assay type: biochemical; conditions: mean ± SEM
T5 construct: purchased BPS Bioscience
Experimental: as §1

[9] = system: SREBP1c, FASN, SCD1, CPT1A, PGC1α, PPARα expression in AML12 cells; experiment: Protein and mRNA expression of DNL and fatty acid oxidation genes in FFA-treated AML12 cells; assay type: cell-based
Experimental: (§2) Western blot was carried out as described.^[ [49] ^] In brief, samples were lysed with a lysis buffer. The same quantity of total proteins (40–60 µg) from each sample was separated on SDS‐PAGE followed by transfer onto a nitrocellulose filter membrane and incubation with the indicated antibodies. After incubation with secondary antibodies, the protein bands were visualized using a chemiluminescence imaging system. All samples in the same group were processed simultaneously.
(§3) Cells and liver tissues were extracted for total RNA. A reverse transcription kit was used to synthesize cDNA. qRT‐PCR was performed with the primers listed in Table S1 (Supporting Information) using the SYBR green PCR master mix. The coding sequence of the target gene was found in NCBI, and Primer3 (v.0.4.0) was used to design amplification primers. The results were normalized by β‐actin in the corresponding sample.

[10] = system: SREBP1c, FASN, SCD1, CPT1A, PGC1α, PPARα, p-AMPKα (Thr172), LKB1 in HepG2 cells; experiment: Protein and mRNA expression and AMPKα phosphorylation in FFA-induced HepG2 cells; assay type: cell-based, human
Experimental: For the lipid accumulation experiment, HepG2 cells were incubated for 24 h in DMEM containing 0.5 × 10^−3 M of a mixture of free fatty acids (FFA; oleic acid: palmitic acid = 2:1) and 1% FFA‐free bovine serum albumin to induce intracellular lipid accumulation, together with B6 treatment.
as §2, §3

[11] = FFA-induced HepG2 cells, 0.5 × 10^−6 M, 24 h
[12] = FFA-treated HepG2 cells, 0.5 × 10^−6 M, 24 h

Sequence of SIRT2 (Q8IXJ6 whole entry, species assumed): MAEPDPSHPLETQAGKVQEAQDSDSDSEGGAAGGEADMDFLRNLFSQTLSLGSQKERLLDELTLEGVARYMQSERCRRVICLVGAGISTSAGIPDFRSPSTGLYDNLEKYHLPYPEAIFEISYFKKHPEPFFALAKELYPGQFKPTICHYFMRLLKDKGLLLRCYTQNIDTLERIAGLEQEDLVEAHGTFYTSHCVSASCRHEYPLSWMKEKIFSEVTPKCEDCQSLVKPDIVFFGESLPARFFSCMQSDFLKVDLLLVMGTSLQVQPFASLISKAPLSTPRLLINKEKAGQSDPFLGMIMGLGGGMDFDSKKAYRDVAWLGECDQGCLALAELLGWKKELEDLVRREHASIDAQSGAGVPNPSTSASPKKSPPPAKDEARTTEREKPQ
T2 sequence (Q8WUI4 whole entry): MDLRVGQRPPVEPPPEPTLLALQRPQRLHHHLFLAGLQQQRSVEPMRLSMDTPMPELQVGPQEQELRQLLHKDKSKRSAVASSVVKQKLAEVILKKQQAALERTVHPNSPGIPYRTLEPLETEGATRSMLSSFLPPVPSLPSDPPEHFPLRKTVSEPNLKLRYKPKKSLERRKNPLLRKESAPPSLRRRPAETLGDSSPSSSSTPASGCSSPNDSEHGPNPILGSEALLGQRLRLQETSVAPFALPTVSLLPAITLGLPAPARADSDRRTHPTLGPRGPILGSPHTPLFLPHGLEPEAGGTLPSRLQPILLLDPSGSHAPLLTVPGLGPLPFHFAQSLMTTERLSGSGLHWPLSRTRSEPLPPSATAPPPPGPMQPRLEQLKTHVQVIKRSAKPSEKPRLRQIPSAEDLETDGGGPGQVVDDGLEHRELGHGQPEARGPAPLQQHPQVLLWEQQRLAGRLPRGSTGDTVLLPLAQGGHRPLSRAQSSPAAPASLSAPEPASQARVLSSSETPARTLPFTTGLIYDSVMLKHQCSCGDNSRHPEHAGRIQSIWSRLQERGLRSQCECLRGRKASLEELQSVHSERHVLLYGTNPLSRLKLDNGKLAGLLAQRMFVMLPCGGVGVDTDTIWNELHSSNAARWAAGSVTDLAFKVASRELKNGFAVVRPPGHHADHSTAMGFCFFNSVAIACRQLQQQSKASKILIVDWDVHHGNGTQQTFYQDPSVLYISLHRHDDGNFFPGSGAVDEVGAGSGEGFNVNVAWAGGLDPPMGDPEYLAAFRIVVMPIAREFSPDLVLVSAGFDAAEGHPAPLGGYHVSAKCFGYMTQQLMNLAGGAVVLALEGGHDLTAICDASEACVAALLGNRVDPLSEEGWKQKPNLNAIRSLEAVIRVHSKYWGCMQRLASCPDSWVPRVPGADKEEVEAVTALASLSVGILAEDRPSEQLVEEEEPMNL
T1 sequence (Q92769 whole entry): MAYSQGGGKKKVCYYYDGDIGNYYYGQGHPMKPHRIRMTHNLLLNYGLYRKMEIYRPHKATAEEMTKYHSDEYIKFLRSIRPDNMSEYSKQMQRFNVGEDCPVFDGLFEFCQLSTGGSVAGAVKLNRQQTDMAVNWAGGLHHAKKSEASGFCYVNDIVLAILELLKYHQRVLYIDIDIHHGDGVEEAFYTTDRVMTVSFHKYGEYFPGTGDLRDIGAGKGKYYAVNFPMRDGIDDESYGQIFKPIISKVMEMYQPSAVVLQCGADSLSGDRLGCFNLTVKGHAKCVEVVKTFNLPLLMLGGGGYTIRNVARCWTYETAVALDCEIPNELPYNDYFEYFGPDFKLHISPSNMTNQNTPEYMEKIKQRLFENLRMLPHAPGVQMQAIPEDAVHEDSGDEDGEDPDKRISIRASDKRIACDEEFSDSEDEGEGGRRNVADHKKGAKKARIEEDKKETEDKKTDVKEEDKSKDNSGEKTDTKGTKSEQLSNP
T4 sequence (O15379 whole entry): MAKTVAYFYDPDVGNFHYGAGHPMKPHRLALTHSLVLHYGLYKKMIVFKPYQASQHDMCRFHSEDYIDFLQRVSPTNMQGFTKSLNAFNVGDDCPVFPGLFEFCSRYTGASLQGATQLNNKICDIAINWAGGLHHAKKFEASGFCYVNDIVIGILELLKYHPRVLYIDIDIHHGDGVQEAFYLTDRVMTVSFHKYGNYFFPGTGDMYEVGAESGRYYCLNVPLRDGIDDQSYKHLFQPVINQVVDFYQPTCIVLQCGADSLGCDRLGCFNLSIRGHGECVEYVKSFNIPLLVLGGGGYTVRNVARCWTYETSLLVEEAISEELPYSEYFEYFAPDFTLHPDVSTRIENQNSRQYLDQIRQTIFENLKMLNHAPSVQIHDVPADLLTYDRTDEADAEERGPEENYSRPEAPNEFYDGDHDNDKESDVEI
T4 sequence (Q9Y618 395-489 partner limits assumed): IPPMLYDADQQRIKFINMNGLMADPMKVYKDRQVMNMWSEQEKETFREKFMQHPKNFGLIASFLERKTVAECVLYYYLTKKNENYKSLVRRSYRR
T5 sequence (P56524 whole entry): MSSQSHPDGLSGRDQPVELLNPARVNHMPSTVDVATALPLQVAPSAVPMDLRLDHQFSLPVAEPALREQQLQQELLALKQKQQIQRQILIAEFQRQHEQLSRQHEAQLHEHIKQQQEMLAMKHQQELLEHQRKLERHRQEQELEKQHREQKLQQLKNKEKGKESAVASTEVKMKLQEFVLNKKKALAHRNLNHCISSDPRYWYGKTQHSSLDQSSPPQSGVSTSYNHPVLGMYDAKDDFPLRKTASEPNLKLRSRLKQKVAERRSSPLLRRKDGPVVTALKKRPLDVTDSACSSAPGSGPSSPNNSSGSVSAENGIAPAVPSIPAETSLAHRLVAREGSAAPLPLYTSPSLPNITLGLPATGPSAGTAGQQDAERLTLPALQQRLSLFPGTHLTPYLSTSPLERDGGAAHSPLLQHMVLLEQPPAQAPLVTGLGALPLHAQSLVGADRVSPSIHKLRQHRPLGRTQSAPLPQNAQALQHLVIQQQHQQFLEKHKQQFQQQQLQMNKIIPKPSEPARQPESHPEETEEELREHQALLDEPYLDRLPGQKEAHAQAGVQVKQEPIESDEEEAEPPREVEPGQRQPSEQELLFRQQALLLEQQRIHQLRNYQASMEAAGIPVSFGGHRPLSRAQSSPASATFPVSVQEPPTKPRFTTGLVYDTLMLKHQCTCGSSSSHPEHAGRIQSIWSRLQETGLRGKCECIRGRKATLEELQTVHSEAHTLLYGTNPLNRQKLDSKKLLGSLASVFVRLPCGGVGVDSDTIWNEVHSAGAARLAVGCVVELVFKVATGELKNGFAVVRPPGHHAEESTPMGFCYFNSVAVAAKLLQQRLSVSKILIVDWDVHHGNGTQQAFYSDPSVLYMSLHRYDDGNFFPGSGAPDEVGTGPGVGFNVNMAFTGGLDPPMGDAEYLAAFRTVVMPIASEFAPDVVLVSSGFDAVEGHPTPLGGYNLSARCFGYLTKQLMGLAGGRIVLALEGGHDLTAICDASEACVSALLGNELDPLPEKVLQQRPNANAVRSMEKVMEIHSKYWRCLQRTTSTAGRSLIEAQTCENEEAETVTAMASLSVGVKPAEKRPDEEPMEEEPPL

CCCCCOCCCCCNNC(=O)c1ccc(CNC(=O)c2ccccc2)cc1 [B6]
IC50 [1]: > 10 µM
IC50 [2]: > 10 µM
concentration of maximal effect on lipid accumulation [3]: 500 nM
FFA-induced lipid accumulation ([3]; various concentrations): significantly mitigated
IC50 [4]: 0.0511 µM
hydrophilicity relative to parent compound A8 [5]: improved the hydrophilicity
IC50 [6]: > 10 µM
inhibitory activity against other HDAC subtypes, including SIRT2 ([7]; at a concentration of 10 × 10^−6 M): no significant inhibitory activity
IC50 ([7]; mean ± SEM): > 10 µM
IC50 [8]: > 10 µM
FFA-suppressed protein and mRNA expression of CPT1A, PGC1α and PPARα [9]: partially restored
FFA-upregulated protein and mRNA expression of SREBP1c, FASN and SCD1 ([9]; 0.5 × 10^−6 M, 24 h): reversed
LKB1 mRNA levels ([10]; FFA-induced HepG2 cells): increase in LKB1 mRNA levels
mRNA levels of CaMKKβ and TAK1 ([10]; FFA-induced HepG2 cells): did not exhibit significant changes
protein and mRNA expression of CPT1A, PGC1α and PPARα [10, 11]: upregulation of protein and mRNA expression
protein and mRNA expression of SREBP1c, FASN and SCD1 [10, 11]: reduction of protein and mRNA expression
phosphorylation of AMPKα at Thr172 [10, 12]: restores the phosphorylation level
protein expression of LKB1 and p-LKB1 [10, 12]: increase LKB1 expression
